Assay results taken from patent US20160061841A1, “NRF2-BASED CANCER TREATMENT AND DETECTION METHODS AND USES” (CanBas Co., Ltd., priority 2014, published 2016).
Where no end group is shown, it is not given here. [ ]: non-standard residue; d: D form. dPhe(F5) = N[C@H](Cc1c(F)c(F)c(F)c(F)c1F)C(=O)O; dBpa = N[C@H](Cc1ccc(C(=O)c2ccccc2)cc1)C(=O)O; dCha = N[C@H](CC1CCCCC1)C(=O)O

How the values were obtained:
Experiment in all cases: CDDP-enhancing activity of CBP501, cell cycle distribution by flow-cytometry
Format in all cases: cell-based, Human
A549 = conditions: 1 h co-exposure with CDDP, shift of subG1 or G2/M dose-response curve
Protocol: (§1) Cell culture and reagents. Human NSCLC cell lines were cultured in a variety of media, each supplemented with 10% fetal bovine serum (Invitrogen, San Diego, CA) at 37° C. with 5% CO2/air. The media used was RPMI1640 (Sigma-Aldrich, St. Louis, Mo.) for NCI-H1755, NCI-H2030, NCI-H1437, NCI-H2122, NCI-H2172, NCI-H2228, NCI-H1563, NCI-H1944, NCI-H1993, NCI-H1734, NCI-H1568, NCI-H2444, NCI-H2291, NCI-H2347, NCI-H1838, NCI-H1299, HCC827, NCI-H1975, NCI-H1155, NCI-H522 and NCI-H1703; RPMI1640 supplemented with 2mM L-glutamine (Invitrogen) for NCI-H727; RPMI1640 supplemented with 4.5 g/L D-glucose (Sigma-Aldrich), 10 mM HEPES (Sigma-Aldrich) and 1 mM sodium pyruvate (Sigma-Aldrich) for NCI-H358, NCI-H520, NCI-H23, NCI-H647 and NCI-H838; Ham's F12K (Sigma-Aldrich) for A549. CDDP was purchased from Sigma-Aldrich. Sulforaphane (SFN) was purchased from Sigma-Aldrich. All NSCLC cell lines were purchased from ATCC and STR analysis had been performed by ATCC to authenticate the identity of each cell line. All cell lines were used within three months after thawing.
(§2) Cell cycle analysis. Cells were plated in 24-well plates and incubated for 24 hours. The cells were treated with or without CDDP plus or minus CBP501 at the indicated concentration for the indicated times. The cells were harvested and stained with Krishan's solution (0.1% sodium citrate, 50 μg/ml propidium iodide, 20 μg/ml RNase A, 0.5% NP-40). Stained cells were analyzed by FACSCalibur (Becton Dickinson, Franklin Lakes, N.J.) using CELLQuest software (Becton Dickinson).
(§3) Here, the change in the cell cycle distribution, as indicated by flow-cytometry, was used to estimate the sensitivity of NSCLC cell lines to CBP501-enhanced cytotoxicity to CDDP. Such changes were monitored in cells treated with CDDP in the presence or absence of CBP501. The utility of this analysis for assessing the effectiveness of anti-cancer therapy is based on the absence of functioning G1/S checkpoint regulation in the cell cycle of many types of cancer cells (14). Lack of a functional G1/S checkpoint leads to an accumulation of cancer cells in G2/M phase upon their exposure to DNA-damaging anticancer agents (14, 15).
(§4) To assess the CDDP-enhancing activity of CBP501, one can examine either of two dose-response curves in which the X-axis indicates the dose of CDDP and Y-axis indicates either the number of cells in subG1 or in G2/M. The transition and peak in either dose-response curve will shift to the left in the presence of CBP501 for CBP501-sensitive cells, indicating the enhanced ability of CDDP to change the cell cycle distribution. […] Using this criterion based on CBP501's ability to shift the CDDP-induced subG1 or G2/M dose-response curve, twelve NSCLC cell lines were classified as being either, CBP501-sensitive or CBP501-insensitive. Cell lines that shifted the curve two fold or more were classified as CBP501 sensitive cells and those that shifted the curve less than two fold were classified as CBP501 insensitive (Table 1). Classification of CBP501 sensitivity in NSCLC cell lines.
(§5) Although the expression of Nrf2 or its several downstream transcription targets may possibly predict resistance to CBP501, the general reliability of these predictive markers for CBP501-sensitivity remained to be established. The combination effect of CBP501 and CDDP in sixteen additional NSCLC cell lines, classifying each as CBP501 sensitive or insensitive by the prior criteria was analyzed (Table 2). Classification of CBP501 sensitivity in additional NSCLC cell lines.

NCI-H1993 = conditions: 1 h co-exposure with CDDP, shift of subG1 or G2/M dose-response curve
Protocol: as §1, §2, §3, §4, §5

NCI-H1975 = conditions: 1 h co-exposure with CDDP
Protocol: as §1, §2, §3, §4, §5

NCI-H522 = conditions: 1 h co-exposure with CDDP
Protocol: as §1, §2, §3, §4, §5

NCI-H1155 = conditions: 1 h co-exposure with CDDP
Protocol: as §1, §2, §3, §4, §5

NCI-H23 = conditions: 1 h co-exposure with CDDP, shift of subG1 or G2/M dose-response curve
Protocol: as §1, §2, §3, §4, §5

NCI-H1299 = conditions: 1 h co-exposure with CDDP, shift of subG1 or G2/M dose-response curve
Protocol: as §1, §2, §3, §4, §5

NCI-H647 = conditions: 1 h co-exposure with CDDP, shift of subG1 or G2/M dose-response curve
Protocol: as §1, §2, §3, §4, §5

NCI-H358 = conditions: 1 h co-exposure with CDDP, shift of subG1 or G2/M dose-response curve
Protocol: as §1, §2, §3, §4, §5

NCI-H727 = conditions: 1 h co-exposure with CDDP
Protocol: as §1, §2, §3, §4, §5

NCI-H1755 = conditions: 1 h co-exposure with CDDP
Protocol: as §1, §2, §3, §4, §5

HCC827 = conditions: 1 h co-exposure with CDDP
Protocol: as §1, §2, §3, §4, §5

NCI-H1563 = conditions: 1 h co-exposure with CDDP
Protocol: as §1, §2, §3, §4, §5

NCI-H1734 = conditions: 1 h co-exposure with CDDP
Protocol: as §1, §2, §3, §4, §5

NCI-H520 = conditions: 1 h co-exposure with CDDP
Protocol: as §1, §2, §3, §4, §5

[1] = shift of subG1 or G2/M dose-response curve

(d-Bpa)(d-Ser)(d-Trp)(d-Ser)(d-Phe-2,3,4,5,6-F)(d-Cha)(d-Arg)(d-Arg)(d-Arg)(d-Gln)(d-Arg)(d-Arg) ([dBpa][dS][dW][dS][dPhe(F5)][dCha][dR][dR][dR][dQ][dR][dR]) [CBP501, anti-cancer drug candidate; calmodulin modulation and G2 checkpoint abrogation]
Folds increase of CDDP effect by CBP501 (A549): 2 fold
Folds increase of CDDP effect by CBP501 (NCI-H1993): 2 fold
Definition of CBP501 sensitivity (NCI-H1975): Sensitive (Cell lines that shifted the curve two fold or more were classified as CBP501 sensitive cells)
Folds increase of CDDP effect by CBP501 (NCI-H1975; [1]): 2 fold
Definition of CBP501 sensitivity (NCI-H522): Sensitive (Cell lines that shifted the curve two fold or more were classified as CBP501 sensitive cells)
Folds increase of CDDP effect by CBP501 (NCI-H522; [1]): 2 fold
Definition of CBP501 sensitivity (NCI-H1155): Insensitive (those that shifted the curve less than two fold were classified as CBP501 insensitive)
Folds increase of CDDP effect by CBP501 (NCI-H1155; [1]): 1.5 fold
Folds increase of CDDP effect by CBP501 (NCI-H23): 4 fold
Folds increase of CDDP effect by CBP501 (NCI-H1299): 8 fold
Folds increase of CDDP effect by CBP501 (NCI-H647): 1.5 fold
Folds increase of CDDP effect by CBP501 (NCI-H358): 1 fold
Definition of CBP501 sensitivity (NCI-H727): Insensitive (those that shifted the curve less than two fold were classified as CBP501 insensitive)
Folds increase of CDDP effect by CBP501 (NCI-H727; [1]): 1 fold
Definition of CBP501 sensitivity (NCI-H1755): Insensitive (those that shifted the curve less than two fold were classified as CBP501 insensitive)
Folds increase of CDDP effect by CBP501 (NCI-H1755; [1]): 1 fold
Definition of CBP501 sensitivity (HCC827): Sensitive (Cell lines that shifted the curve two fold or more were classified as CBP501 sensitive cells)
Folds increase of CDDP effect by CBP501 (HCC827; [1]): 4 fold
Definition of CBP501 sensitivity (NCI-H1563): Insensitive (those that shifted the curve less than two fold were classified as CBP501 insensitive)
Folds increase of CDDP effect by CBP501 (NCI-H1563; [1]): 1.5 fold
Definition of CBP501 sensitivity (NCI-H1734): Sensitive (Cell lines that shifted the curve two fold or more were classified as CBP501 sensitive cells)
Folds increase of CDDP effect by CBP501 (NCI-H1734; [1]): 2 fold
Definition of CBP501 sensitivity (NCI-H520): Sensitive (Cell lines that shifted the curve two fold or more were classified as CBP501 sensitive cells)
Folds increase of CDDP effect by CBP501 (NCI-H520; [1]): 2 fold
